In BindingDB's records for doi:10.1021/jm950640q (Sankyo, 1997) one finds IC50 data, which are given here for 11 compounds.

Usually IC50 stands for the concentration that gives 50% inhibition.

This experiment is described as follows: Inhibiting Platelet activating factor receptor by radioreceptor binding assay using rabbit platelets and [3H]-PAF.
Consider `C/C1=C\CC[C@@]2(C)O[C@@H]2C(=O)[C@@H]2CC[C@@H](C)[C@](C)(CC1)[C@H]2C=O` [(E)-(1R,3S,5R,12S,13R,16S)-5,9,12,13-Tetramethyl-2-oxo-4-oxa-tricyclo[10.3.1.0*3,5*]hexadec-8-ene-16-carbaldehyde], for which the half-maximal inhibitory concentration (IC50) was 120 nM.
The same measure for `C/C1=C\CC[C@@]2(C)O[C@@H]2C(=O)[C@@H]2CC[C@@H](C)[C@](C)(CC1)[C@H]2COc1ccon1` [(E)-(1R,3S,5R,12S,13R,16S)-16-(Isoxazol-3-yloxymethyl)-5,9,12,13-tetramethyl-4-oxa-tricyclo[10.3.1.0*3,5*]hexadec-8-en-2-one]: 50 nM.
The figure for `C/C1=C\CC[C@@]2(C)O[C@@H]2C(=O)[C@@H]2CC[C@@H](C)[C@](C)(CC1)[C@H]2CO` [(E)-(1R,3S,5R,12S,13R,16S)-16-Hydroxymethyl-5,9,12,13-tetramethyl-4-oxa-tricyclo[10.3.1.0*3,5*]hexadec-8-en-2-one] is 1300 nM; for `CC(=O)OC[C@H]1[C@H]2CC[C@@H](C)[C@]1(C)CC/C(C)=C/CC[C@@]1(C)O[C@@H]1[C@@H]2O` [Acetic acid (E)-(1R,2R,3R,5R,12S,13R,16S)-2-hydroxy-5,9,12,13-tetramethyl-4-oxa-tricyclo[10.3.1.0*3,5*]hexadec-8-en-16-ylmethyl ester] it is 80 nM; for `CC(=O)OC[C@H]1[C@H]2CC[C@@H](C)[C@]1(C)CC/C(C)=C/CC[C@@]1(C)O[C@@H]1C2=O` [Acetic acid (E)-(1R,3S,5R,12S,13R,16S)-5,9,12,13-tetramethyl-2-oxo-4-oxa-tricyclo[10.3.1.0*3,5*]hexadec-8-en-16-ylmethyl ester] it is 410 nM.
The figure for `COC(=O)OC[C@H]1[C@H]2CC[C@@H](C)[C@]1(C)CC/C(C)=C/CC[C@@]1(C)O[C@@H]1[C@@H]2O` [Carbonic acid (E)-(1R,2R,3R,5R,12S,13R,16S)-2-hydroxy-5,9,12,13-tetramethyl-4-oxa-tricyclo[10.3.1.0*3,5*]hexadec-8-en-16-ylmethyl ester methyl ester] is 130 nM; for `COC(=O)OC[C@H]1[C@H]2CC[C@@H](C)[C@]1(C)CC/C(C)=C/CC[C@@]1(C)O[C@@H]1C2=O` [Carbonic acid methyl ester (E)-(1R,3S,5R,12S,13R,16S)-5,9,12,13-tetramethyl-2-oxo-4-oxa-tricyclo[10.3.1.0*3,5*]hexadec-8-en-16-ylmethyl ester] it is 26 nM; for `C/C1=C\CC[C@@]2(C)O[C@@H]2C(=O)[C@@H]2CC[C@@H](C)[C@](C)(CC1)[C@H]2COC(=O)Oc1ccccc1` [Carbonic acid phenyl ester (E)-(1R,3S,5R,12S,13R,16S)-5,9,12,13-tetramethyl-2-oxo-4-oxa-tricyclo[10.3.1.0*3,5*]hexadec-8-en-16-ylmethyl ester] it is 550 nM.
In turn, `C/C1=C\CC[C@@]2(C)O[C@@H]2[C@H](O)[C@@H]2CC[C@@H](C)[C@](C)(CC1)[C@H]2COC(=O)N(C)C` [Dimethyl-carbamic acid (E)-(1R,2R,3R,5R,12S,13R,16S)-2-hydroxy-5,9,12,13-tetramethyl-4-oxa-tricyclo[10.3.1.0*3,5*]hexadec-8-en-16-ylmethyl ester] returned a concentration for half-maximal inhibition (IC50) of 180 nM.
The figure for `C/C1=C\CC[C@@]2(C)O[C@@H]2C(=O)[C@@H]2CC[C@@H](C)[C@](C)(CC1)[C@H]2COC(=O)N(C)C` [Dimethyl-carbamic acid (E)-(1R,3S,5R,12S,13R,16S)-5,9,12,13-tetramethyl-2-oxo-4-oxa-tricyclo[10.3.1.0*3,5*]hexadec-8-en-16-ylmethyl ester] is 180 nM.
Take `CCC(=O)OC[C@H]1[C@H]2CC[C@@H](C)[C@]1(C)CC/C(C)=C/CC[C@@]1(C)O[C@@H]1[C@@H]2O` [Propionic acid (E)-(1R,2R,3R,5R,12S,13R,16S)-2-hydroxy-5,9,12,13-tetramethyl-4-oxa-tricyclo[10.3.1.0*3,5*]hexadec-8-en-16-ylmethyl ester]: the IC50 is 340 nM.
